These molecules were tested against T1, hFXR (Homo sapiens, UniProt Q96RI1) (assay: In Vitro FXR Assay (TK): TK-ECRE-luc reporter in transfected CV-1 cells). Settings: 18 hrs, luminescence, maximum efficacy of <25% of the Fexarmine control classified as '+'.
T1 construct: expressed in transfected cells; host or cells: CV-1 cells
T1 sequence (Q96RI1 1-486): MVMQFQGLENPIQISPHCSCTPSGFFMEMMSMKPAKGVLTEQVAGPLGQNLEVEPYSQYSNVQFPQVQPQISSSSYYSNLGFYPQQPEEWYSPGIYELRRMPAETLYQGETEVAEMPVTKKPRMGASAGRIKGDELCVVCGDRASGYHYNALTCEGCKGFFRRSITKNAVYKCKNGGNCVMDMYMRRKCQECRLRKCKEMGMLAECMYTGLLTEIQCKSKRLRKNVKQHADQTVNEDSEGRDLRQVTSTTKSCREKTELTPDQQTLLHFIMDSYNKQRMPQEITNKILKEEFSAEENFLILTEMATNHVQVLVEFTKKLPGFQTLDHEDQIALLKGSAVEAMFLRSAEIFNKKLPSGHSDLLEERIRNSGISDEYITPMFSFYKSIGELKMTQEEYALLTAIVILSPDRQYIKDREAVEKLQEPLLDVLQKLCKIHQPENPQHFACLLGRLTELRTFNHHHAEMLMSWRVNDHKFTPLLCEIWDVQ
T1 sequence (P19793 1-462 partner): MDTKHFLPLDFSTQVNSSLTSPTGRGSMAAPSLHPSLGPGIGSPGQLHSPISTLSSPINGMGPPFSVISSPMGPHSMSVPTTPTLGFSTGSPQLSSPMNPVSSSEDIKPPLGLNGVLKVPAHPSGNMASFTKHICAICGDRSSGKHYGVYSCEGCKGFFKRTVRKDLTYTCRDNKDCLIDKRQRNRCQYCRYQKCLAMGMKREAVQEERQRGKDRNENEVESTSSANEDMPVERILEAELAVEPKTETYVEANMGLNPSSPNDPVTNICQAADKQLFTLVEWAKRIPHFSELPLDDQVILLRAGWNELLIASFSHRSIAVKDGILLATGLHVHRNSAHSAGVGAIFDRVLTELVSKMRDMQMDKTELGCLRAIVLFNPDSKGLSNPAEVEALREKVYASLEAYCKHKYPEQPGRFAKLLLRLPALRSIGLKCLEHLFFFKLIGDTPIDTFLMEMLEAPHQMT
Format: cell-based
Summary of the method: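 Cells are seeded in charcoal double-stripped FBS medium, transfected overnight with FXR/RXR expression and ECRE-driven luciferase reporter plasmids, then treated with serially diluted compounds for 18 h. Lysates are measured for luciferase light output.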

| Compound | EC50 [nM] |
| --- | --- |
| COc1ccc([C@H]2CC[C@H](CN(c3cc(-c4coc(C5CC5)n4)ccn3)C(=O)[C@H]3CC[C@H](CO)CC3)CC2)nc1C [Compound 15.04, trans-N-(4-(2-Cyclopropyloxazol-4-yl)pyridin-2-yl)-4-(hydroxymethyl)-N-((trans-4-(5-methoxy-6-methylpyridin-2-yl)cyclohexyl)methyl) cyclohexanecarboxamide] | ≤ 250 |
| CNC(=O)O[C@H]1CC[C@H](C(=O)N(C[C@H]2CC[C@H](c3ccc(OC)c(C#N)n3)CC2)c2cccc(-c3coc(C(C)C)n3)c2)CC1 [Compound 5.46, trans-4-(((trans-4-(6-Cyano-5-methoxypyridin-2-yl)cyclohexyl)methyl)(3-(2-isopropyloxazol-4-yl)phenyl)carbamoyl)cyclohexyl methylcarbamate] | ≤ 250 |
| COc1ccc([C@H]2CC[C@H](CN(c3cccc(-c4cnc(C5CC5)s4)c3)C(=O)[C@H]3CC[C@H](CC(=O)O)CC3)CC2)nc1C#N [Compound 20.01, 2-(trans-4-(((trans-4-(6-Cyano-5-methoxypyridin-2-yl)cyclohexyl)methyl)(3-(2-cyclopropylthiazol-5-yl)phenyl)carbamoyl)cyclohexyl) acetic acid] | ≤ 250 |
| COc1ccc([C@H]2CC[C@H](CN(c3cccc(-c4cnc(C(C)C)s4)c3)C(=O)[C@H]3CC[C@H](OC(=O)NCCO)CC3)CC2)nc1C [Compound 6.04, trans-4-((3-(2-Isopropylthiazol-5-yl)phenyl)((trans-4-(5-methoxy-6-methylpyridin-2-yl)cyclohexyl)methyl)carbamoyl)cyclohexyl (2-hydroxyethyl)carbamate] | ≤ 250 |
| COc1ccc([C@H]2CC[C@H](CN(c3cccc(-c4cnc(C(C)C)s4)c3)C(=O)[C@H]3CC[C@H](CC(=O)O)CC3)CC2)nc1C [Compound 20.07, 2-(trans-4-((3-(2-Isopropylthiazol-5-yl)phenyl)((trans-4-(5-methoxy-6-methylpyridin-2-yl)cyclohexyl)methyl)carbamoyl)cyclohexyl) acetic acid] | ≤ 250 |
| COc1ccc([C@H]2CC[C@H](CN(c3cccc(-c4coc(C(C)C)n4)c3)C(=O)[C@H]3CC[C@H](OC(=O)NCCO)CC3)CC2)nc1C [Compound 6.48, trans-4-((3-(2-Isopropyloxazol-4-yl)phenyl)((trans-4-(5-methoxy-6-methylpyridin-2-yl)cyclohexyl)methyl)carbamoyl)cyclohexyl (2-hydroxyethyl)carbamate] | ≤ 250 |
| COc1ccc([C@H]2CC[C@H](CN(c3cccc(-c4cnn(C5CC5)c4)c3)C(=O)[C@H]3CC[C@H](OC(=O)N4CC(O)C4)CC3)CC2)nc1C [Compound 4.26, trans-4-((3-(1-Cyclopropyl-1H-pyrazol-4-yl)phenyl)((trans-4-(5-methoxy-6-methylpyridin-2-yl)cyclohexyl)methyl)carbamoyl)cyclohexyl 3-hydroxyazetidine-1-carboxylate] | ≤ 250 |
| COc1ccc([C@H]2CC[C@H](CN(c3cccc(-c4cnn(C5CC5)c4)c3)C(=O)[C@H]3CC[C@H](OC(=O)NCCN(C)C)CC3)CC2)cc1C [Compound 4.09, trans-4-((3-(1-Cyclopropyl-1H-pyrazol-4-yl)phenyl)((trans-4-(4-methoxy-3-methylphenyl)cyclohexyl)methyl)carbamoyl)cyclohexyl (2-(dimethylamino)ethyl)carbamate] | ≤ 250 |
| COc1ccc([C@H]2CC[C@H](CN(c3cccc(-c4coc(C5CC5)n4)c3)C(=O)[C@H]3CC[C@H](OC(=O)NCCO)CC3)CC2)cc1C#N [Compound 6.53, trans-4-(((trans-4-(3-Cyano-4-methoxyphenyl)cyclohexyl)methyl)(3-(2-cyclopropyloxazol-4-yl)phenyl)carbamoyl)cyclohexyl (2-hydroxyethyl)carbamate] | ≤ 250 |
| CNC(=O)O[C@H]1CC[C@H](C(=O)N(C[C@H]2CC[C@H](c3cnc(OC)c(C)c3)CC2)c2cccc(-c3cnn(C4CC4)c3)c2)CC1 [Compound 5.16, trans-4-((3-(1-Cyclopropyl-1H-pyrazol-4-yl)phenyl)((trans-4-(6-methoxy-5-methylpyridin-3-yl)cyclohexyl)methyl)carbamoyl)cyclohexyl methylcarbamate] | ≤ 250 |
| COc1ccc([C@H]2CC[C@H](CN(c3cc(-c4coc(C5CC5)n4)ccn3)C(=O)[C@H]3CC[C@H](OC(=O)N4CC(O)C4)CC3)CC2)nc1C#N [Compound 7.72, trans-4-(((trans-4-(6-Cyano-5-methoxypyridin-2-yl)cyclohexyl)methyl)(4-(2-cyclopropyloxazol-4-yl)pyridine-2-yl)carbamoyl)cyclohexyl 3-hydroxyazetidine-1-carboxylate] | ≤ 250 |
| COc1ccc([C@H]2CC[C@H](CN(c3cccc(-c4cnn(C5CC5)c4)c3)C(=O)[C@H]3CC[C@H](C(=O)OC)CC3)CC2)cc1C [Compound 18.13, trans-Methyl 4-((3-(1-cyclopropyl-1H-pyrazol-4-yl)phenyl)((trans-4-(4-methoxy-3-methylphenyl)cyclohexyl)methyl)carbamoyl) cyclohexanecarboxylate] | ≤ 250 |
| CNC(=O)N[C@H]1CC[C@H](C(=O)N(C[C@H]2CC[C@H](c3ccc(OC)c(C)c3)CC2)c2cccc(-c3cnn(C4CC4)c3)c2)CC1 [Compound 26.37, trans-N-(3-(1-Cyclopropyl-1H-pyrazol-4-yl)phenyl)-N-((trans-4-(4-methoxy-3-methylphenyl)cyclohexyl)methyl)-4-(3-methylureido)cyclohexanecarboxamide] | ≤ 250 |
| COc1ccc([C@H]2CC[C@H](CN(c3cc(-c4coc(C5CC5)n4)ccn3)C(=O)[C@H]3CC[C@H](OC(=O)N4CCC4)CC3)CC2)nc1C [Compound 7.75, trans-4-((4-(2-Cyclopropyloxazol-4-yl)pyridine-2-yl)((trans-4-(5-methoxy-6-methylpyridin-2-yl)cyclohexyl)methyl)carbamoyl)cyclohexyl azetidine-1-carboxylate] | ≤ 250 |
| COc1ccc([C@H]2CC[C@H](CN(c3cccc(-c4cnc(C5CC5)s4)c3)C(=O)[C@H]3CC[C@H](NC(=O)COC(C)=O)CC3)CC2)cc1C [Compound 25.13, 2-((trans-4-((3-(2-Cyclopropylthiazol-5-yl)phenyl)((trans-4-(4-methoxy-3-methylphenyl)cyclohexyl)methyl)carbamoyl)cyclohexyl)amino)-2-oxoethyl acetate] | ≤ 250 |
| COc1ccc([C@H]2CC[C@H](CN(c3cccc(-c4coc(C5CC5)n4)c3)C(=O)[C@H]3CC[C@H](C(=O)O)CC3)CC2)cc1C#N [Compound 18, trans-4-(((trans-4-(3-Cyano-4-methoxyphenyl)cyclohexyl)methyl)(3-(2-cyclopropyloxazol-4-yl)phenyl)carbamoyl)cyclohexanecarboxylic acid] | ≤ 250 |
| COc1ccc([C@H]2CC[C@H](CN(c3cccc(-c4cnn(C5CC5)c4)c3)C(=O)[C@H]3CC[C@H](C(=O)OCCC(C)C)CC3)CC2)cc1C [Compound 22.05, trans-Isopentyl 4-((3-(1-cyclopropyl-1H-pyrazol-4-yl)phenyl)((trans-4-(4-methoxy-3-methylphenyl)cyclohexyl)methyl)carbamoyl) cyclohexanecarboxylate] | 250 to 1000 |
| COc1ccc([C@H]2CC[C@@H](CN(c3cccc(-c4coc(C5CC5)n4)c3)C(=O)[C@H]3CC[C@H](CC(=O)O)CC3)CC2)nc1C [Compound 21.04, 2-(trans-4-((3-(2-Cyclopropyloxazol-4-yl)phenyl)((cis-4-(5-methoxy-6-methylpyridin-2-yl)cyclohexyl)methyl)carbamoyl)cyclohexyl) acetic acid] | ≥ 1000 |
| COc1ccc([C@H]2CC[C@H](CN(c3cccc(-c4cnc(C5CC5)s4)c3)C(=O)[C@H]3CC[C@H](OC(=O)NCCO)CC3)CC2)cc1C [Compound 4.01, trans-4-((3-(2-Cyclopropylthiazol-5-yl)phenyl)((trans-4-(4-methoxy-3-methylphenyl)cyclohexyl)methyl)carbamoyl)cyclohexyl (2-hydroxyethyl)carbamate] | ≤ 250 |
| COC(=O)CC1CN(C(=O)O[C@H]2CC[C@H](C(=O)N(C[C@H]3CC[C@H](c4ccc(OC)c(C)n4)CC3)c3cc(-c4coc(C5CC5)n4)ccn3)CC2)C1 [Compound 7.85, trans-4-((4-(2-Cyclopropyloxazol-4-yl)pyridine-2-yl)((trans-4-(5-methoxy-6-methylpyridin-2-yl)cyclohexyl)methyl)carbamoyl)cyclohexyl 3-(2-methoxy-2-oxoethyl)azetidine-1-carboxylate] | ≤ 250 |
